Reference: patent EP3495350B1, “COMPOUND INHIBITING FORMATION OF C-MYC/MAX/DNA COMPLEX” (National Cancer Center, priority 2016, dated 2018)

Key:
MBT-2 = experiment: Cell based assay, cell viability (CellTiter-Glo), MBT-2; conditions: 72 hours, 0 to 2 µM; read-out: cell based assay cell line 1 MBT-2 IC50
Experimental: (§1) Commercially available bladder cancer cell lines were treated with trypsin-EDTA and seeded in each well of a 96 well plate, followed by incubation for 24 hours. After incubation, candidate compounds were added to each well at a final concentration of 0 to 2 µM. The compound-treated cells were further incubated for 72 hours. Cell viability was measured using an ATP detection method (CellTiter-Glo Luminescent Cell Viability Assay, Promega).
(§2) The selectivity of the compounds of the present disclosure to cancer cells was evaluated in the same manner as described in "2. Cell based assay".

253J = experiment: Cell based assay, cell viability (CellTiter-Glo), 253J; conditions: Homo sapiens; 72 hours, 0 to 2 µM; read-out: cell based assay cell line 3 253J IC50
Experimental: as §1, §2

KU19-19 = experiment: Cell based assay, cell viability (CellTiter-Glo), KU19-19; conditions: Homo sapiens, KU-19-19; 72 hours, 0 to 2 µM; read-out: cell based assay cell line 2 KU19-19 IC50
Experimental: as §1, §2

UM-UC-3 = experiment: Cell based assay, cell viability (CellTiter-Glo), UM-UC-3; conditions: Homo sapiens, UMUC3; 72 hours, 0 to 2 µM; read-out: cell based assay cell line 4 UM-UC-3 IC50
Experimental: as §1, §2

| Compound | IC50 (MBT-2) [nM] | IC50 (253J) [nM] | IC50 (KU19-19) [nM] | IC50 (UM-UC-3) [nM] |
| --- | --- | --- | --- | --- |
| CC(=O)c1c([S+]([O-])Cc2ccc(Cl)cc2)[nH]c2c(Br)ccc(Cl)c2c1=O (stereo not shown) [Compound 11, 3-acetyl-8-bromo-5-chloro-2-((4-chlorobenzyl)sulfinyl)quinolin-4(1H)-one] | > 2000 | 1410 | > 2000 | 1490 |
| CC(=O)c1c([S+]([O-])c2ccccc2)[nH]c2c(Br)ccc(Cl)c2c1=O (stereo not shown) [Compound 13, 3-acetyl-8-bromo-5-chloro-2-(phenylsulfinyl)quinolin-4(1H)-one] | > 2000 | > 2000 | > 2000 | > 2000 |
| COc1ccccc1[S+]([O-])c1[nH]c2c(Br)ccc(Cl)c2c(=O)c1C(C)=O (stereo not shown) [Compound 15, 3-acetyl-8-bromo-5-chloro-2-((2-methoxyphenyl)sulfinyl)quinolin-4(1H)-one] | > 2000 | > 2000 | 1910 | > 2000 |
| CC(=O)c1c([S+]([O-])c2ccc(Br)cc2)[nH]c2c(Br)ccc(Cl)c2c1=O (stereo not shown) [Compound 17, 3-acetyl-8-bromo-2-((4-bromophenyl)sulfinyl)-5-chloroquinolin-4(1H)-one] | > 2000 | > 2000 | > 2000 | > 2000 |
| CC(=O)c1c([S+]([O-])C(C)c2ccccc2)[nH]c2c(Br)ccc(Cl)c2c1=O (stereo not shown) [Compound 26, 3-acetyl-8-bromo-5-chloro-2-((1-phenylethyl)sulfinyl)quinolin-4(1H)-one] | > 2000 | > 2000 | > 2000 | > 2000 |
| CC(=O)c1c([S+]([O-])Cc2cccc(C#N)c2)[nH]c2c(Br)ccc(Cl)c2c1=O (stereo not shown) [Compound 28, 3-(((3-acetyl-8-bromo-5-chloro-4-oxo-1,4-dihydroquinolin-2-yl)sulfinyl)methyl)benzonitrile] | 790 | 740 | 1460 | 790 |
| CC(=O)c1c([S+]([O-])Cc2ccc(F)cc2F)[nH]c2c(Br)ccc(Cl)c2c1=O (stereo not shown) [Compound 29, 3-acetyl-8-bromo-5-chloro-2-((2,4-difluorobenzyl)sulfinyl)quinolin-4(1H)-one] | 1200 | 960 | 1680 | 1130 |
| CC(=O)c1c([S+]([O-])Cc2ccc(F)c(Cl)c2)[nH]c2c(Br)ccc(Cl)c2c1=O (stereo not shown) [Compound 31, 3-acetyl-8-bromo-5-chloro-2-((3-chloro-4-fluorobenzyl)sulfinyl)quinolin-4(1H)-one] | 1280 | 890 | 1450 | 1020 |
| CC(=O)c1c(S(=O)(=O)Cc2ccccc2)[nH]c2c(Br)ccc(Cl)c2c1=O [Compound 34, 3-acetyl-2-(benzylsulfonyl)-8-bromo-5-chloroquinolin-4(1H)-one] | > 2000 | > 2000 | > 2000 | > 2000 |
| CC(=O)c1c([S+]([O-])Cc2cc(Cl)ccc2Cl)[nH]c2c(Br)ccc(Cl)c2c1=O (stereo not shown) [Compound 44, 3-acetyl-8-bromo-5-chloro-2-((2,5-dichlorobenzyl)sulfinyl)quinolin-4(1H)-one] | 1150 | 1240 | 1270 | 970 |
| CC(=O)c1c([S+]([O-])Cc2cc(F)cc(F)c2)[nH]c2c(Br)ccc(Cl)c2c1=O (stereo not shown) [Compound 46, 3-acetyl-8-bromo-5-chloro-2-((3,5-difluorobenzyl)sulfinyl)quinolin-4(1H)-one] | 1840 | 1960 | 1800 | 1220 |
| CC(=O)c1c([S+]([O-])Cc2cccc(I)c2)[nH]c2c(Br)ccc(Cl)c2c1=O (stereo not shown) [Compound 48, 3-acetyl-8-bromo-5-chloro-2-((3-iodobenzyl)sulfinyl)quinolin-4(1H)-one] | > 2000 | > 2000 | > 2000 | 1820 |
| CC(=O)c1c([S+]([O-])Cc2cccc(F)c2)[nH]c2c(Br)ccc(Cl)c2c1=O (stereo not shown) [Compound 50, 3-acetyl-8-bromo-5-chloro-2-((3-fluorobenzyl)sulfinyl)quinolin-4(1H)-one] | 1580 | 1430 | 1690 | 1260 |
| CC(=O)c1c([S+]([O-])Cc2cc(C)on2)[nH]c2c(Br)ccc(Cl)c2c1=O (stereo not shown) [Compound 51, 3-acetyl-8-bromo-5-chloro-2-(((5-methylisoxazol-3-yl)methyl)sulfinyl)quinolin-4(1H)-one] | 760 | 1130 | 1260 | 630 |
| CC(=O)c1c([S+]([O-])Cc2ccccc2)nc2c(Br)ccc(Cl)c2c1O (stereo not shown) [Compound 53, 1-(2-(benzylsulfinyl)-8-bromo-5-chloro-4-hydroxyquinolin-3-yl)ethan-1-one] | > 2000 | > 2000 | > 2000 | > 2000 |
| COc1cccc(C[S+]([O-])c2[nH]c3c(Br)ccc(Cl)c3c(=O)c2C(C)=O)c1 (stereo not shown) [Compound 55, 3-acetyl-8-bromo-5-chloro-2-((3-methoxybenzyl)sulfinyl)quinolin-4(1H)-one] | > 2000 | 1330 | 1380 | 1580 |
| CC(=O)c1c([S+]([O-])Cc2ccc(SC(F)(F)F)cc2)[nH]c2c(Br)ccc(Cl)c2c1=O (stereo not shown) [Compound 56, 3-acetyl-8-bromo-5-chloro-2-((4-((trifluoromethyl)thio)benzyl)sulfinyl)quinolin-4(1H)-one] | 1180 | 1110 | 940 | 1250 |
| CC(=O)c1c([S+]([O-])Cc2ccc([N+](=O)[O-])cc2)[nH]c2c(Cl)ccc(Cl)c2c1=O (stereo not shown) [Compound 57, 3-acetyl-5,8-dichloro-2-((4-nitrobenzyl)sulfinyl)quinolin-4(1H)-one] | > 2000 | 1920 | 1830 | > 2000 |
| CC(=O)c1c([S+]([O-])Cc2ccccc2C#N)[nH]c2c(Br)ccc(Cl)c2c1=O (stereo not shown) [Compound 58, 2-(((3-acetyl-8-bromo-5-chloro-4-oxo-1,4-dihydroquinolin-2-yl)sulfinyl)methyl)benzonitrile] | 860 | 920 | 920 | 1220 |
| COc1cc(C[S+]([O-])c2[nH]c3c(Br)ccc(Cl)c3c(=O)c2C(C)=O)cc(OC)c1 (stereo not shown) [Compound 59, 3-acetyl-8-bromo-5-chloro-2-((3,5-dimethoxybenzyl)sulfinyl)quinolin-4(1H)-one] | 1300 | 1140 | 1230 | 1370 |
| CC(=O)c1c([S+]([O-])Cc2ccc(C(C)(C)C)cc2)[nH]c2c(Br)ccc(Cl)c2c1=O (stereo not shown) [Compound 60, 3-acetyl-8-bromo-2-((4-(tert-butyl)benzyl)sulfinyl)-5-chloroquinolin-4(1H)-one] | > 2000 | 1710 | 1560 | > 2000 |
| CC(=O)c1c([S+]([O-])Cc2ccc(C(=O)c3ccccc3)cc2)[nH]c2c(Br)ccc(Cl)c2c1=O (stereo not shown) [Compound 63, 3-acetyl-2-((4-benzoylbenzyl)sulfinyl)-8-bromo-5-chloroquinolin-4(1H)-one] | > 2000 | > 2000 | > 2000 | > 2000 |
| CC(=O)c1c([S+]([O-])Cc2ccc([S+]([O-])C(F)(F)F)cc2)[nH]c2c(Br)ccc(Cl)c2c1=O (stereo not shown) [Compound 64, 3-acetyl-8-bromo-5-chloro-2-((4-((trifluoromethyl)sulfinyl)benzyl)sulfinyl)quin olin-4(1H)-one] | 840 | 950 | 1410 | 1060 |
| CC(=O)c1c([S+]([O-])Cc2ccc(C(F)(F)F)cc2)[nH]c2c(Br)ccc(Cl)c2c1=O (stereo not shown) [Compound 70, 3-acetyl-8-bromo-5-chloro-2-((4-(trifluoromethyl)benzyl)sulfinyl)quinolin-4(1H)-one] | 1330 | 1040 | 1750 | 1260 |
| CC(=O)c1c([S+]([O-])Cc2ccc(OC(F)(F)F)cc2)[nH]c2c(Br)ccc(Cl)c2c1=O (stereo not shown) [Compound 71, 3-acetyl-8-bromo-5-chloro-2-((4-(trifluoromethoxy)benzyl)sulfinyl)quinolin-4(1H)-one] | 1470 | 1110 | 1600 | 1610 |
| CC(=O)c1c([S+]([O-])Cc2ccc(C(F)(F)F)o2)[nH]c2c(Br)ccc(Cl)c2c1=O (stereo not shown) [Compound 72, 3-acetyl-8-bromo-5-chloro-2-(((5-(trifluoromethyl)furan-2-yl)methyl)sulfinyl)quinolin-4(1H)-one] | 1010 | 830 | 1370 | 820 |
| CC(=O)c1c([S+]([O-])Cc2ccc(C#N)cc2)[nH]c2c(Br)ccc(Cl)c2c1=O (stereo not shown) [Compound 73, 4-(((3-acetyl-8-bromo-5-chloro-4-oxo-1,4-dihydroquinolin-2-yl)sulfinyl)methyl)benzonitrile] | 1000 | 1340 | 2000 | 1620 |
| CC(=O)c1c([S+]([O-])Cc2c(F)cccc2Cl)[nH]c2c(Br)ccc(Cl)c2c1=O (stereo not shown) [Compound 74, 3-acetyl-8-bromo-5-chloro-2-((2-chloro-6-fluorobenzyl)sulfinyl)quinolin-4(1H)-one] | 1150 | 810 | 1640 | 1540 |
